Counter-ions that a name gives are not always drawn. Like-named read-outs stand apart in the source and are kept apart here.
What was measured:
[1] = test system: methicillin-resistant staphylococcus aureus (MRSA); assay: Minimum inhibitory concentration (MIC) test against MRSA; format: cell-based
Description: (§1) This complex can be easily compared to the cefazolin sodium salt by testing the minimum inhibitory concentration (MIC). Initial tests were performed against a drug resistant gram negative bacterium; carbapenem-resistant enterobacteriaceae (CRE) and a drug resistant gram positive bacterium; methicillin-resistant staphylococcus aureus (MRSA). […] By transforming the cefazolin sodium salt into a silver complex, it changes the antibiotic that CRE and MRSA are resistant to, to a compound that CRE and MRSA are susceptible to. Thus, in several embodiments, the compositions provided for herein lead to a heretofore unseen efficacy against drug-resistant microorganisms.

[2] = test system: carbapenem-resistant enterobacteriaceae (CRE); assay: Minimum inhibitory concentration (MIC) test against CRE; format: cell-based; conditions: drug resistant gram negative bacterium
Description: as §1

Compound	MIC ([1]; drug resistant gram positive bacterium) [µg/mL]	MIC [2] [µg/mL]	MIC ([1]; Staphylococcus aureus) [µg/mL]	MIC ([2]; read-out: MIC) [µg/mL]
cefazolin silver complex	4	4		
Cc1nnc(SCC2=C(C(=O)O)N3C(=O)[C@@H](NC(=O)Cn4cnnn4)[C@H]3SC2)s1 [cefazolin sodium salt, Cefazolin sodium salt]			256	> 256

Reference: patent US20150150995A1, “CONJUGATED ANTI-MICROBIAL COMPOUNDS AND CONJUGATED ANTI-CANCER COMPOUNDS AND USES THEREOF” (PONO CORPORATION, priority 2012, published 2015)
